Measurements as given in patent US20090144853A1, “Control of Gene Expression in Plants” (UNIVERSITY OF DURHAM, priority 2005, published 2009).

Assays:
[1] = test system: Arabidopsis thaliana seedlings; assay: Root development of LRI-1 seedlings grown with hormones or hormone signalling inhibitors; format: in vivo
Experimental: (§1) The expression of the GUS promoter trap was analysed over a developmental time course in uninfected Arabidopsis seedlings that had been grown aseptically on a synthetic growth medium. Prior to analysis, seeds of the transgenic line were surface sterilised by treatment with 70% (v/v) ethanol for 3 minutes and 10% (v/v) commercial bleach for 20 minutes. The seeds were then washed with water and grown on half-strength Murashige and Skoog medium (½MS), supplemented with 10 g/l sucrose. The seedlings were grown in the presence of continuous light at 25° C. Tissue localisation of the GUS enzyme activity was determined at intervals after germination by staining for up to 12 hours at 37° C. in 1 mM 5-bromo-4-chloro-3-indoyl-β-D-glucuronic acid (X-gluc), according to the method of Jefferson et al (1987, EMBO J. 6, 3901-3907), wherein the method was modified by the use of buffer comprising 100 mM sodium phosphate (pH 7.0), 10 mM EDTA, 0.1% (v/v) Triton X-100 and 1 mM potassium ferricyanide to inhibit diffusion of the reaction intermediate. This solution was known as GUS buffer. Excess chlorophyll was removed by soaking the stained tissues in 70% (v/v) ethanol.
(§2) In order to investigate the regulation of the LRI-1 promoter activity, seeds that were homozygous for the LRI-1 gene fusion were germinated aseptically on ½MS10 medium in the presence or absence of hormones. At 9 dpg, the seedlings were subsequently transferred to ½MS10 medium containing either hormones or inhibitors of hormone signalling. Hormone treatments used for the purposes of this invention included, but were not limited to: 0.25, 2.5 or 10 μM 1-naphthaleneacetic acid (NAA, a synthetic auxin); 0.25, 2.5 or 10 μM kinetin (a synthetic cytokinin); 10 or 100 μM silver nitrate (an inhibitor of ethylene signalling); 10 or 100 μM 1-aminocyclopropane-1-carboxylic acid (ACC, a precursor of ethylene); 10 or 100 μM naphthylphthalamic acid (NPA) or 10 μM triiodobenozoic acid (TIBA). NPA and TIBA are inhibitors of polar auxin transport. After growth on medium in the presence or absence of hormones, the seedlings were transferred to a solution of GUS buffer and analysed for GUS activity (indicated by the presence of a blue precipitate).

[2] = test system: LRI-1 promoter; assay: GUS histochemical staining of LRI-1 promoter trap seedlings grown with hormones or hormone signalling inhibitors; format: in vivo, Arabidopsis thaliana
Experimental: as §1, §2

[3] = test system: AtPRB2 promoter; assay: GUS activity of 2.47 kb AtPRB2 promoter fragment::GUS transgenic seedlings treated with exogenous auxin; format: in vivo, Arabidopsis thaliana; settings: 9 dpg on ½MS10, then 2.5 μM for a further 1, 3 or 5 days; except at the root tips
Description: To confirm that the 5′ flanking sequence upstream of the left T-DNA was responsible for the observed GUS activity in line LRI-1, the sequence was cloned and fused to each of the gusA and the GFP reporter genes respectively. The technique of PCR was used to amplify a 1.47 kb genomic fragment immediately upstream of the left T-DNA border. This 1.47 kb fragment was cloned upstream of the respective reporter genes and subsequently introduced into Arabidopsis thaliana plants by the dipping method of Agrobacterium tumefaciens-mediated transformation (Clough and Bent 1998 Plant J. 16, 735-743). In order to determine whether the promoter activity of the cloned sequence pLRI-1 was similar to the promoter region upstream of gene AtPRB2, a 2.47 kb fragment immediately upstream of the gene was cloned. In addition, shorter fragments which were 1 kb, 0.5 kb and 0.2 kb upstream of AtPRB2 were cloned and fused to the gusA reporter gene in the binary vector pΔGUSCIRCE (Casson et al, 2002 Plant Cell 14, 1705-1721), before introduction into plants by Agrobacterium-mediated transformation.
Using a similar approach, the activity of the 2.47 kb AtPRB2 gene fragment was determined in transgenic Arabidopsis lines. […]

[4] = grown on 2.5 μM or 10 μM for up to 9 days
[5] = transferred to compound after growth on hormone-free medium, higher concentrations
[6] = 9 days without compound, then 10 μM for a further 2 days

## c1coc(CNc2ncnc3[nH]cnc23)c1 [kinetin]
[1]; [4]
  lateral root formation: no lateral root formation was observed
[1]; [5]
  lateral root formation: reduction in lateral root formation
[2]; [4]
  GUS activity: detected as normal
[2]; [5]
  GUS activity: detectable as normal

## O=C(O)c1cc(I)cc(I)c1I [TIBA, triiodobenozoic acid]
[1]; [6]
  new lateral root formation: inhibition of new lateral root formation
[1]; germinated and grown 5 dpg in presence of 10 μM
  lateral root development: No lateral root development was observed
[2]; [6]
  existing GUS activity at previously formed lateral roots: remained unaffected
[2]; grown 5 dpg in presence of 10 μM, some seedlings, at sites where lateral roots would normally emerge
  GUS activity: localised but low level GUS activity

## O=C(O)Cc1cccc2ccccc12 [NAA, 1-naphthaleneacetic acid]
[1]; after transfer at 9 dpg, 2.5 μM NAA
  adventitious root development: developed adventitious roots on the hypocotyl
[1]; grown for 9 dpg in presence of auxin, roots GUS-positive
  adventitious root development: adventitious roots developed from the shortened hypocotyl
[1]; seedlings germinated on ½MS10 in presence of NAA, most prominent at 10 μM
  root elongation: dramatic reduction in root elongation
[3]
  AtPRB2::GUS activity: strong induction of AtPRB2::GUS activity throughout the root
[2]; 9 dpg on ½MS10, then transfer to 0.25, 2.5 or 10 μM NAA for 1, 3 or 5 days, except at the root tip
  GUS activity in root: strong GUS activity throughout the root
[2]; after transfer at 9 dpg, two lower concentrations of NAA tested
  GUS activity in aerial parts: No GUS activity was detected
[2]; seedlings germinated on ½MS10 in presence of NAA (0.25, 2.5 or 10 μM), most prominent at 10 μM
  GUS activity: strong throughout the root of the seedling
[2]; seedlings treated with 2.5 μM exogenous auxin
  LRI-1::GUS expression: induction of LRI-1::GUS expression throughout the Arabidopsis root

## O=[N+]([O-])[O-].[Ag+] [silver nitrate]
[2]; germination and growth for 3, 5 or 9 days in presence of 10 μM
  GUS activity associated with the LRI-1 promoter: reduction in GUS activity

## NC1(C(=O)O)CC1 [ACC, 1-aminocyclopropane-1-carboxylic acid]
[2]; germinated and grown in presence of 10 μM for up to 9 dpg
  level of GUS activity: reduction in the level of GUS activity
[2]; grown in presence of 100 μM, stronger expression at the base of lateral roots
  GUS activity: induction of GUS activity in the hypocotyl
